Test results published in ChEMBL document CHEMBL3885861, “Open TG-GATES”.

Species: Rattus norvegicus
Assay: Open TG-GATES - Regimen: Single
Assay type: toxicity, organism-based, Sprague-Dawley
Set-up: regimen Single, gender Male, age 6 weeks
Settings: in vivo, iv, route intravenous injection; for gamma-GTP / ALT / AST / CRE / DBIL / GLC / K / LDH / Na / PL / RALB / TBIL / TC / TP: tissue Plasma; for Bas / Eos / Hb / Ht / Lym / MCH / MCHC / MCV / Mono / Neu / Plat / RBC / Ret: tissue Blood; for KIDNEY_L / KIDNEY_R / KIDNEY_TOTAL: tissue Kidney

Molecule `CC(C)C[C@H](NC(=O)[C@H](Cc1ccccc1)NC(=O)c1cnccn1)B(O)O` [BORTEZOMIB] has a gamma-GTP (0 mg/kg, 24 h, dose level Control) of 1 IU/L, a TERMINAL_BW (1 mg/kg, 3 h, dose level High) of 228.6 g and a Bas (1 mg/kg, 3 h, dose level High) of 0%. For the same molecule, the Eos (1 mg/kg, 3 h, dose level High) was 0.6%, the Hb (1 mg/kg, 3 h, dose level High) was 14.6 g/dL and the Ht (1 mg/kg, 3 h, dose level High) was 41.1%. It also gave a Lym (1 mg/kg, 3 h, dose level High) of 73%, an MCH (1 mg/kg, 3 h, dose level High) of 22.6 pg and an MCHC (1 mg/kg, 3 h, dose level High) of 35.4%. For the same molecule, the MCV (1 mg/kg, 3 h, dose level High) was 63.7 fL, the Mono (1 mg/kg, 3 h, dose level High) was 2.2% and the Neu (1 mg/kg, 3 h, dose level High) was 23.8%. For the same molecule, the Plat (1 mg/kg, 3 h, dose level High) was 121.1 x10_4/uL, the RBC (1 mg/kg, 3 h, dose level High) was 645.8 x10_4/ul and the Ret (1 mg/kg, 3 h, dose level High) was 8.6%. The KIDNEY_L (1 mg/kg, 3 h, dose level High) was 0.9 g, the KIDNEY_R (1 mg/kg, 3 h, dose level High) was 1 g and the KIDNEY_TOTAL (1 mg/kg, 3 h, dose level High) was 1.9 g. For the same molecule, the ALT (1 mg/kg, 3 h, dose level High) was 60 IU/L, the AST (1 mg/kg, 3 h, dose level High) was 123.6 IU/L and the CRE (1 mg/kg, 3 h, dose level High) was 0.2 mg/dL. The DBIL (1 mg/kg, 3 h, dose level High) was 0.008 mg/dL, the GLC (1 mg/kg, 3 h, dose level High) was 155 mg/dL and the K (1 mg/kg, 3 h, dose level High) was 4.2 meq/L. It also gave an LDH (1 mg/kg, 3 h, dose level High) of 295.6 IU/L, a Na (1 mg/kg, 3 h, dose level High) of 141.3 meq/L and a PL (1 mg/kg, 3 h, dose level High) of 99 mg/dL. For the same molecule, the RALB (1 mg/kg, 3 h, dose level High) was 3.7 g/dL, the TBIL (1 mg/kg, 3 h, dose level High) was 0.012 mg/dL and the TC (1 mg/kg, 3 h, dose level High) was 63.6 mg/dL. The TP (1 mg/kg, 3 h, dose level High) was 5 g/dL, the gamma-GTP (1 mg/kg, 3 h, dose level High) was 0.8 IU/L and the TERMINAL_BW (1 mg/kg, 6 h, dose level High) was 226.8 g. It also gave a Bas (1 mg/kg, 6 h, dose level High) of 0%, an Eos (1 mg/kg, 6 h, dose level High) of 0.2% and a Hb (1 mg/kg, 6 h, dose level High) of 14.2 g/dL. The Ht (1 mg/kg, 6 h, dose level High) was 39.8%, the Lym (1 mg/kg, 6 h, dose level High) was 61% and the MCH (1 mg/kg, 6 h, dose level High) was 22.8 pg. The MCHC (1 mg/kg, 6 h, dose level High) was 35.7%, the MCV (1 mg/kg, 6 h, dose level High) was 63.8 fL and the Mono (1 mg/kg, 6 h, dose level High) was 2.2%. The Neu (1 mg/kg, 6 h, dose level High) was 35.6%, the Plat (1 mg/kg, 6 h, dose level High) was 113.4 x10_4/uL and the RBC (1 mg/kg, 6 h, dose level High) was 623.4 x10_4/ul. It also gave a Ret (1 mg/kg, 6 h, dose level High) of 8.3%, a KIDNEY_L (1 mg/kg, 6 h, dose level High) of 1 g and a KIDNEY_R (1 mg/kg, 6 h, dose level High) of 1 g. For the same molecule, the KIDNEY_TOTAL (1 mg/kg, 6 h, dose level High) was 1.9 g, the ALT (1 mg/kg, 6 h, dose level High) was 116.4 IU/L and the AST (1 mg/kg, 6 h, dose level High) was 191.4 IU/L. The CRE (1 mg/kg, 6 h, dose level High) was 0.2 mg/dL, the DBIL (1 mg/kg, 6 h, dose level High) was 0.006 mg/dL and the GLC (1 mg/kg, 6 h, dose level High) was 148.2 mg/dL. The K (1 mg/kg, 6 h, dose level High) was 4.4 meq/L, the LDH (1 mg/kg, 6 h, dose level High) was 314.4 IU/L and the Na (1 mg/kg, 6 h, dose level High) was 141.2 meq/L. The PL (1 mg/kg, 6 h, dose level High) was 78.4 mg/dL, the RALB (1 mg/kg, 6 h, dose level High) was 3.7 g/dL and the TBIL (1 mg/kg, 6 h, dose level High) was 0.008 mg/dL. It also gave a TC (1 mg/kg, 6 h, dose level High) of 44.6 mg/dL, a TP (1 mg/kg, 6 h, dose level High) of 4.9 g/dL and a gamma-GTP (1 mg/kg, 6 h, dose level High) of 0.6 IU/L. For the same molecule, the TERMINAL_BW (1 mg/kg, 9 h, dose level High) was 222.8 g, the Bas (1 mg/kg, 9 h, dose level High) was 0% and the Eos (1 mg/kg, 9 h, dose level High) was 0.8%. It also gave a Hb (1 mg/kg, 9 h, dose level High) of 14.3 g/dL, a Ht (1 mg/kg, 9 h, dose level High) of 40.6% and a Lym (1 mg/kg, 9 h, dose level High) of 49%. The MCH (1 mg/kg, 9 h, dose level High) was 23 pg, the MCHC (1 mg/kg, 9 h, dose level High) was 35.2% and the MCV (1 mg/kg, 9 h, dose level High) was 65.2 fL. For the same molecule, the Mono (1 mg/kg, 9 h, dose level High) was 2%, the Neu (1 mg/kg, 9 h, dose level High) was 48.2% and the RBC (1 mg/kg, 9 h, dose level High) was 622 x10_4/ul. It also gave a Ret (1 mg/kg, 9 h, dose level High) of 8.2%, a KIDNEY_L (1 mg/kg, 9 h, dose level High) of 1 g and a KIDNEY_R (1 mg/kg, 9 h, dose level High) of 1 g. For the same molecule, the KIDNEY_TOTAL (1 mg/kg, 9 h, dose level High) was 2 g, the ALT (1 mg/kg, 9 h, dose level High) was 122.2 IU/L and the AST (1 mg/kg, 9 h, dose level High) was 182 IU/L. The CRE (1 mg/kg, 9 h, dose level High) was 0.2 mg/dL, the DBIL (1 mg/kg, 9 h, dose level High) was 0.014 mg/dL and the GLC (1 mg/kg, 9 h, dose level High) was 150.4 mg/dL. It also gave a K (1 mg/kg, 9 h, dose level High) of 4 meq/L, an LDH (1 mg/kg, 9 h, dose level High) of 262 IU/L and a Na (1 mg/kg, 9 h, dose level High) of 140.9 meq/L. For the same molecule, the PL (1 mg/kg, 9 h, dose level High) was 74 mg/dL, the RALB (1 mg/kg, 9 h, dose level High) was 3.6 g/dL and the TBIL (1 mg/kg, 9 h, dose level High) was 0.02 mg/dL. It also gave a TC (1 mg/kg, 9 h, dose level High) of 36.2 mg/dL, a TP (1 mg/kg, 9 h, dose level High) of 4.7 g/dL and a gamma-GTP (1 mg/kg, 9 h, dose level High) of 0.8 IU/L. The TERMINAL_BW (1 mg/kg, 24 h, dose level High) was 215.1 g, the Bas (1 mg/kg, 24 h, dose level High) was 0% and the Eos (1 mg/kg, 24 h, dose level High) was 0%. The Hb (1 mg/kg, 24 h, dose level High) was 12.6 g/dL, the Ht (1 mg/kg, 24 h, dose level High) was 35.2% and the Lym (1 mg/kg, 24 h, dose level High) was 42%. The MCH (1 mg/kg, 24 h, dose level High) was 23.4 pg, the MCHC (1 mg/kg, 24 h, dose level High) was 35.8% and the MCV (1 mg/kg, 24 h, dose level High) was 65.5 fL. The Mono (1 mg/kg, 24 h, dose level High) was 2.7%, the Neu (1 mg/kg, 24 h, dose level High) was 54% and the Plat (1 mg/kg, 24 h, dose level High) was 89 x10_4/uL. The RBC (1 mg/kg, 24 h, dose level High) was 538.3 x10_4/ul, the Ret (1 mg/kg, 24 h, dose level High) was 5.4% and the KIDNEY_L (1 mg/kg, 24 h, dose level High) was 1 g. For the same molecule, the KIDNEY_R (1 mg/kg, 24 h, dose level High) was 1 g, the KIDNEY_TOTAL (1 mg/kg, 24 h, dose level High) was 2 g and the ALT (1 mg/kg, 24 h, dose level High) was 163 IU/L. It also gave an AST (1 mg/kg, 24 h, dose level High) of 368.7 IU/L, a CRE (1 mg/kg, 24 h, dose level High) of 0.2 mg/dL and a DBIL (1 mg/kg, 24 h, dose level High) of 0.5 mg/dL. For the same molecule, the GLC (1 mg/kg, 24 h, dose level High) was 134.7 mg/dL, the K (1 mg/kg, 24 h, dose level High) was 4 meq/L and the LDH (1 mg/kg, 24 h, dose level High) was 922.3 IU/L. For the same molecule, the Na (1 mg/kg, 24 h, dose level High) was 135.5 meq/L, the PL (1 mg/kg, 24 h, dose level High) was 100.3 mg/dL and the RALB (1 mg/kg, 24 h, dose level High) was 2.7 g/dL. It also gave a TBIL (1 mg/kg, 24 h, dose level High) of 0.5 mg/dL, a TC (1 mg/kg, 24 h, dose level High) of 41 mg/dL and a TP (1 mg/kg, 24 h, dose level High) of 3.9 g/dL. For the same molecule, the gamma-GTP (1 mg/kg, 24 h, dose level High) was 4.3 IU/L.
